Data published in US8431563B2 (priority 2010, dated 2013).
Read-outs that look alike come from different tables or passages of the source.

Columns and labels:
[1] = target: T1, interaction between glucokinase (GK) and glucokinase regulatory protein (GKRP) (Homo sapiens, UniProt Q14397); experiment: biochemical; format: binding
T1 sequence (Q14397 1-625): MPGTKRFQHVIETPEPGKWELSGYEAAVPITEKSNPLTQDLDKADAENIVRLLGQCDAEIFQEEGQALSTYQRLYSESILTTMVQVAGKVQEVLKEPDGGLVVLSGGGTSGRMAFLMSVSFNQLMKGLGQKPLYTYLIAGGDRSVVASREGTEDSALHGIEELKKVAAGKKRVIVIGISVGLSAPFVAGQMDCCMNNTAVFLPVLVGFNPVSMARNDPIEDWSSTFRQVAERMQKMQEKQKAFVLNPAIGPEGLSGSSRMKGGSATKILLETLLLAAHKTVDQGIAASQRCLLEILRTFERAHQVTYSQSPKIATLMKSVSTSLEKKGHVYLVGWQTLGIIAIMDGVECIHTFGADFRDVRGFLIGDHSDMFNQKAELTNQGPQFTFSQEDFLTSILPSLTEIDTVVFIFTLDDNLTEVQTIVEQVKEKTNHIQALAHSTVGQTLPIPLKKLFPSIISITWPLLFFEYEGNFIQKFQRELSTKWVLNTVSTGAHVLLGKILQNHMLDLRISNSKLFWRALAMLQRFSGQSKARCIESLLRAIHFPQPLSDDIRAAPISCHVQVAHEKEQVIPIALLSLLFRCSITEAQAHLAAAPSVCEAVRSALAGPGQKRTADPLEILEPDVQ
Procedure, shortened: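 Measures direct GK–GKRP binding in 20 mM Tris pH 7.5 containing 1 μM sorbitol-6-phosphate, 0.05% BSA and 1 mM DTT. Compound and avi-tagged GKRP sit 20 min at room temperature before GK-fluorescein addition (6 nM in the added buffer); read after 2 h dark incubation at room temperature.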

[2] = target: T2, GKRP (Glucokinase Regulatory Protein) with human His-hepatic GK (Homo sapiens, UniProt Q14397); experiment: biochemical
T2 sequence (Q14397 1-625): T1 sequence (Q14397 1-625)
Procedure, shortened: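 Product formation, 13C-glucose-6-phosphate from 13C-glucose, was measured directly by LC MS/MS after acetonitrile quench. The GK reaction ran 30 min at room temperature in Tris pH 7.5 buffer with 4 mM MgCl2 and 6% DMSO. The 5× enzyme stock was 30 nM His-tagged human hepatic glucokinase.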

[3] = avi-tagged GKRP, GK-fluorescein, AlphaScreen beads, read-out: GK-GKRP IC50 (Binding)
[4] = 13C-glucose-6-phosphate formation, 280 nM GKRP (10×), 30 nM GK (5×), read-out: GK-GKRP EC50 (LC MS/MS-2)
[5] = GK-GKRP EC50 (LC MS/MS-2), 13C-glucose-6-phosphate formation, 280 nM GKRP (10×), 30 nM GK (5×)

Compound `CC(O)(c1ccc(N2CCN(S(=O)(=O)c3cccs3)C[C@@H]2CN(C2CCC2)S(C)(=O)=O)cc1)C(F)(F)F` (stereo partly drawn) [Example 212, N-cyclobutyl-N-(((2R)-4-(2-thiophenylsulfonyl)-1-(4-(2,2,2-trifluoro-1-hydroxy-1-methylethyl)phenyl)-2-piperazinyl)methyl) methanesulfonamide] has an IC50 [1, 3] of 0.068 µM and an EC50 [2, 4] of 0.092 µM.

Work on `C[C@H]1CN(S(=O)(=O)c2ccccc2N)CCN1c1ncc(C(O)(C(F)(F)F)C(F)(F)F)cn1` [Example 167, (S)-2-(2-(4-(2-aminophenylsulfonyl)-2-methylpiperazin-1-yl)pyrimidin-5-yl)-1,1,1,3,3,3-hexafluoro-2-propanol] yielded an IC50 [1, 3] of 0.508 µM and an EC50 [2, 4] of 0.516 µM.

Compound `CC1CNC(=O)CN1C[C@H]1CN(S(=O)(=O)c2cccs2)CCN1c1ccc(C(C)(O)C(F)(F)F)cc1` (mixture of isomers) [Example 183, 5-methyl-4-(((2S)-4-(2-thiophenylsulfonyl)-1-(4-(2,2,2-trifluoro-1-hydroxy-1-methylethyl)phenyl)-2-piperazinyl)methyl)-2-piperazinone] has an IC50 [1, 3] of 0.171 µM and an EC50 [2, 4] of 0.287 µM.

Compound `C[C@H]1COCCN1C[C@H]1CN(S(=O)(=O)c2cccs2)CCN1c1ccc(C(O)(CO)C(F)(F)F)cc1` (single isomer, unassigned) [Example 83 Peak #1] has an IC50 [1, 3] of 0.032 µM and an EC50 [2, 4] of 0.068 µM.

`CC(C)CN(C[C@H]1CN(S(=O)(=O)c2ccc(N)nc2)CCN1c1ncc(C(O)(C(F)(F)F)C(F)(F)F)cn1)S(C)(=O)=O` [Example 230 (6-amino-3-pyridinyl), N-(((2S)-4-((6-amino-3-pyridinyl)sulfonyl)-1-(5-(2,2,2-trifluoro-1-hydroxy-1-(trifluoromethyl)ethyl)-2-pyrimidinyl)-2-piperazinyl)methyl)-N-(2-methylpropyl)methanesulfonamide] gave an IC50 [1, 3] of 0.001 µM and an EC50 [2, 4] of 0.011 µM.

In the case of `CN(C[C@H]1CN(S(=O)(=O)c2cccs2)CCN1c1ccc(C(C)(O)C(F)(F)F)cc1)S(C)(=O)=O` (mixture of isomers) [Example 208, N-methyl-N-(((2S)-4-(2-thiophenylsulfonyl)-1-(4-(2,2,2-trifluoro-1-hydroxy-1-methylethyl)phenyl)-2-piperazinyl)methyl)methane sulfonamide], the IC50 [1, 3] is reported as 0.112 µM and the EC50 [2, 4] is reported as 0.234 µM.

Compound `CC(O)(c1ccc(N2CCN(S(=O)(=O)c3cccs3)C[C@@H]2CN2CCS(=O)(=O)CC2)cc1)C(F)(F)F` (mixture of isomers) [Example 85, 2-(4-((2S)-2-((1,1-dioxido-4-thiomorpholinyl)methyl)-4-(2-thiophenylsulfonyl)-1-piperazinyl)phenyl)-1,1,1-trifluoro-2-propanol] has an IC50 [1, 3] of 0.35 µM and an EC50 [2, 4] of 0.475 µM.

Work on `CN(C[C@H]1CN(S(=O)(=O)c2cccs2)CCN1c1ccc(C(C)(O)C(F)(F)F)cc1)S(=O)(=O)c1cccnc1` (mixture of isomers) [Example 217, N-methyl-N-(((2S)-4-(2-thiophenylsulfonyl)-1-(4-(2,2,2-trifluoro-1-hydroxy-1-methylethyl)phenyl)-2-piperazinyl)methyl)-3-pyridinesulfonamide] yielded an IC50 [1, 3] of 0.407 µM and an EC50 [2, 4] of 0.752 µM.

Compound `CC(O)(c1ccc(N2CCN(S(=O)(=O)c3cccs3)C[C@@H]2CN(CC2CC2)S(C)(=O)=O)cc1)C(F)(F)F` (mixture of isomers) [Example 202, N-(cyclopropylmethyl)-N-(((2S)-4-(2-thiophenylsulfonyl)-1-(4-(2,2,2-trifluoro-1-hydroxy-1-methylethyl)phenyl)-2-piperazinyl)methyl)methanesulfonamide] has an IC50 [1, 3] of 0.026 µM and an EC50 [2, 4] of 0.039 µM.

With `CC(O)(c1ccc(N2CCN(S(=O)(=O)c3cccs3)C[C@@H]2CN2CC3(COC3)C2)cc1)C(F)(F)F` (mixture of isomers) [Example 84, 1,1,1-trifluoro-2-(4-((2S)-2-(2-oxa-6-azaspiro[3.3]hept-6-ylmethyl)-4-(2-thiophenylsulfonyl)-1-piperazinyl)phenyl)-2-propanol] the IC50 [1, 3] was 0.667 µM and the EC50 ([2]; GK-GKRP EC50 (LC MS/MS-2)) was 0.659 µM.

`CC(O)(c1cnc(N2CCN(S(=O)(=O)c3ccc(N)s3)C[C@@H]2CC2CCOCC2)nc1)C(F)(F)F` (mixture of isomers) [Example 135, 2-(2-((2S)-4-((5-amino-2-thiophenyl)sulfonyl)-2-(tetrahydro-2H-pyran-4-ylmethyl)-1-piperazinyl)-5-pyrimidinyl)-1,1,1-trifluoro-2-propanol] was tested, and the IC50 [1, 3] was 0.055 µM and the EC50 [2, 4] was 0.108 µM.

In the case of `CC(O)(c1ccc(N2CCN(S(=O)(=O)c3cccs3)C[C@@H]2CN2CCC(=O)CC2)cc1)C(F)(F)F` (mixture of isomers) [Example 144, 1-(((2S)-4-(2-thiophenylsulfonyl)-1-(4-(2,2,2-trifluoro-1-hydroxy-1-methylethyl)phenyl)-2-piperazinyl)methyl)-4-piperidinone], the IC50 [1, 3] is reported as 0.564 µM and the EC50 [2, 4] is reported as 0.831 µM.

`CC(O)(c1ccc(N2CCN(S(=O)(=O)c3cccs3)C[C@@H]2CN2C3CCCC2CC(=O)C3)cc1)C(F)(F)F` (mixture of isomers) [Example 140, 9-(((2S)-4-(2-thiophenylsulfonyl)-1-(4-(2,2,2-trifluoro-1-hydroxy-1-methylethyl)phenyl)-2-piperazinyl)methyl)-9-azabicyclo[3.3.1]nonan-3-one] showed an IC50 ([1]; GK-GKRP IC50 (Binding), avi-tagged GKRP, GK-fluorescein, AlphaScreen beads) of 0.007 µM and an EC50 [2, 5] of 0.015 µM.

Work on `CC1(C)C(=O)NCCN1C[C@H]1CN(S(=O)(=O)c2ccc(N)s2)CCN1c1ncc(C(O)(C(F)(F)F)C(F)(F)F)cn1` [Example 227, (S)-4-((4-((5-aminothiophen-2-yl)sulfonyl)-1-(5-(1,1,1,3,3,3-hexafluoro-2-hydroxypropan-2-yl)pyrimidin-2-yl)piperazin-2-yl)methyl)-3,3-dimethylpiperazin-2-one] yielded an IC50 [1, 3] of 0.002 µM and an EC50 [2, 4] of 0.021 µM.

With `CC(C)CS(=O)(=O)N(C[C@H]1CN(S(=O)(=O)c2cccs2)CCN1c1ccc(C(C)(O)C(F)(F)F)cc1)c1cccnc1` (mixture of isomers) [Example 223, 2-methyl-N-3-pyridinyl-N-(((2R)-4-(2-thiophenylsulfonyl)-1-(4-(2,2,2-trifluoro-1-hydroxy-1-methylethyl)phenyl)-2-piperazinyl)methyl)-1-propanesulfonamide] the IC50 [1, 3] was 0.035 µM and the EC50 [2, 4] was 0.086 µM.

`CC(O)(c1ccc(N2CCN(S(=O)(=O)c3cccs3)C[C@@H]2CN2CCOCC2CNS(C)(=O)=O)cc1)C(F)(F)F` (single isomer, unassigned) [Example 112 Peak #2] showed an IC50 ([1]; GK-GKRP IC50 (Binding)) of 0.21 µM and an EC50 ([2]; GK-GKRP EC50 (LC MS/MS-2)) of 0.332 µM.

`CC(C)N(C[C@H]1CN(S(=O)(=O)c2cccs2)CCN1c1ccc(C(C)(O)C(F)(F)F)cc1)S(=O)(=O)N(C)C` (mixture of isomers) [Example 209, N,N-dimethyl-N′-(1-methylethyl)-N′-(((2R)-4-(2-thiophenylsulfonyl)-1-(4-(2,2,2-trifluoro-1-hydroxy-1-methylethyl)phenyl)-2-piperazinyl)methyl)sulfamide] showed an IC50 [1, 3] of 0.007 µM and an EC50 [2, 4] of 0.023 µM.

For `CC(C)N(C[C@H]1CN(S(=O)(=O)c2cccs2)CCN1c1ccc(C(C)(O)C(F)(F)F)cc1)C(C)C` (mixture of isomers) [Example 194, 2-(4-((2S)-2-((bis(1-methylethyl)amino)methyl)-4-(2-thiophenylsulfonyl)-1-piperazinyl)phenyl)-1,1,1-trifluoro-2-propanol], the IC50 [1, 3] was 0.205 µM and the EC50 [2, 5] was 0.179 µM.
